The source of these data is article PMC2095803 (Nucleic Acids Research, 2007).

The target in assay [1] is AmpliTaqFS DNA polymerase (Thermus aquaticus, UniProt P19821, F667Y/G46D). The experiment in a line: PEP. Type of assay: biochemical, Thermus aquaticus YT-1.
In assay [2] the target is T1, Bst DNA polymerase (Geobacillus stearothermophilus, UniProt P52026).
T1 sequence (P52026 289-876 limits assumed): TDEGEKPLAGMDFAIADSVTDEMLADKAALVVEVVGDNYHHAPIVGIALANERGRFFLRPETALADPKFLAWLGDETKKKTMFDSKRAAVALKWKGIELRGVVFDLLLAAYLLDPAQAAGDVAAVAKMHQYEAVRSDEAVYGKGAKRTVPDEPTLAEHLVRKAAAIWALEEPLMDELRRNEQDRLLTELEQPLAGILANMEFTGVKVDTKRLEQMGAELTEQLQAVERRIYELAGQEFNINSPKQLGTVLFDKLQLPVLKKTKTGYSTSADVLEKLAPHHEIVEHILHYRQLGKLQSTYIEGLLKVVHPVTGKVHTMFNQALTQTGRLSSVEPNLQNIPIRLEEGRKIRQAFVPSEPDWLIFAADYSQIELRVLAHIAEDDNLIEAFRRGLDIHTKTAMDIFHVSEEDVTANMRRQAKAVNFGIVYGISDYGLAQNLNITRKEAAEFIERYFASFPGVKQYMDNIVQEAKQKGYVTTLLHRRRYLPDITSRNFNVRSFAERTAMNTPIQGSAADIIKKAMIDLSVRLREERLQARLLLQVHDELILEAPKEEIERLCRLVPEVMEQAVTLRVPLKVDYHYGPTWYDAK
Put plainly: Five-base CRT sequencing experiment on solid support. The class given is biochemical, Bacillus stearothermophilus.

Assay [3] has as its target T2, Taq DNA polymerase (Thermus aquaticus, UniProt P19821). The experiment in a line: PEP. Type of assay: biochemical, Thermus aquaticus YT-1.
The target in assay [4] is T3, Therminator DNA polymerase (Thermococcus sp., UniProt Q56366, A485L/D141A/E143A).
T3 sequence (Q56366 1-775 D141A/E143A/A485L): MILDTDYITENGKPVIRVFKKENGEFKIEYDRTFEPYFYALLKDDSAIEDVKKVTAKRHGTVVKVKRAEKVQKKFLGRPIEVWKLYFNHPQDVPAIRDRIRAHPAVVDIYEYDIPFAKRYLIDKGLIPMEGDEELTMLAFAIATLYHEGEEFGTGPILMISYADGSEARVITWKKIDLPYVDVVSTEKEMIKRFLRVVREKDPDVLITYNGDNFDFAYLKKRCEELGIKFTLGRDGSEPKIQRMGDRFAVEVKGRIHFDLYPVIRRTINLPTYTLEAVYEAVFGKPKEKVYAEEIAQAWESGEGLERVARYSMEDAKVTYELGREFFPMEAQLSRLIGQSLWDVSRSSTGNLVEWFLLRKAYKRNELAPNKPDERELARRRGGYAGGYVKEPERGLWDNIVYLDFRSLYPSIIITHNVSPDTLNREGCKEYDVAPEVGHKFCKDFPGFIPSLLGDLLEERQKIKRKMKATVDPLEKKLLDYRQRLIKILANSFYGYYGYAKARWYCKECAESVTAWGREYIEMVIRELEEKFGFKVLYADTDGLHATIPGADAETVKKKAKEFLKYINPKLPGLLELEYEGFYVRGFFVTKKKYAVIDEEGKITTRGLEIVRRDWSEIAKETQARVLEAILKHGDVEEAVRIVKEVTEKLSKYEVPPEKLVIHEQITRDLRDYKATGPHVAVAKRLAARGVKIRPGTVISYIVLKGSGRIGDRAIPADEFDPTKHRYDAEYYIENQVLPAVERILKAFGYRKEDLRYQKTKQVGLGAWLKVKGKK
The experiment in a line: PEP. The class given is biochemical, Thermococcus species 9ºN-7.

The target of assay [5] is T2, Taq DNA polymerase. Put plainly: PEP termination assay. The class given is biochemical, Thermus aquaticus YT-1.
Assay [6] addresses T4, Vent(exo−) DNA polymerase (Thermococcus litoralis, UniProt P30317, D141A/E143A).
T4 sequence (P30317 with tags, fused parts or gaps D141A/E143A): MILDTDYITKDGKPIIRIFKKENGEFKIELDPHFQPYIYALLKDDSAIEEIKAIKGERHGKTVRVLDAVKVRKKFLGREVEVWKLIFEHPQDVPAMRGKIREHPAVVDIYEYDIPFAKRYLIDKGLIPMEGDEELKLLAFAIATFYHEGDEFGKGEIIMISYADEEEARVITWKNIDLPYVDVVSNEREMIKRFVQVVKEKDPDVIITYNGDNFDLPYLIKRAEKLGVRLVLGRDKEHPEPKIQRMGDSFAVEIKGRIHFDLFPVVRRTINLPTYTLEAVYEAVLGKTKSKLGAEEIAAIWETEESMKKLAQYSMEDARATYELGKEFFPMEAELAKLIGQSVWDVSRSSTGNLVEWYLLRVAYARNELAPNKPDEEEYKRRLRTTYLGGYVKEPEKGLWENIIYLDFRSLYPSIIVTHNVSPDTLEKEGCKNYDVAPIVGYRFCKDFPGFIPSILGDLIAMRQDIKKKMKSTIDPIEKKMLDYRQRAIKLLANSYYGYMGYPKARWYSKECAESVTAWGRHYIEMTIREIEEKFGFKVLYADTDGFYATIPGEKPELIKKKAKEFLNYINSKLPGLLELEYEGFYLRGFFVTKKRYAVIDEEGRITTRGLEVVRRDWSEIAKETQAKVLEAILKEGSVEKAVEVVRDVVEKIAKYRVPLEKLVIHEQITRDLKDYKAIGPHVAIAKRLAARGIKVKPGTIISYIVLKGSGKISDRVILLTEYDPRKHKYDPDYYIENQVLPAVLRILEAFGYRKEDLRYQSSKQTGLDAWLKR
Put plainly: PEP. The class given is biochemical.

Setting [7] is: AmpliTaqFS, ratio of IC50 values.
Setting [8] is: Therminator, ratio of IC50 values.

Some results are limits rather than exact numbers.

Chain of AmpliTaqFS DNA polymerase (P19821 whole entry G46D/F667Y): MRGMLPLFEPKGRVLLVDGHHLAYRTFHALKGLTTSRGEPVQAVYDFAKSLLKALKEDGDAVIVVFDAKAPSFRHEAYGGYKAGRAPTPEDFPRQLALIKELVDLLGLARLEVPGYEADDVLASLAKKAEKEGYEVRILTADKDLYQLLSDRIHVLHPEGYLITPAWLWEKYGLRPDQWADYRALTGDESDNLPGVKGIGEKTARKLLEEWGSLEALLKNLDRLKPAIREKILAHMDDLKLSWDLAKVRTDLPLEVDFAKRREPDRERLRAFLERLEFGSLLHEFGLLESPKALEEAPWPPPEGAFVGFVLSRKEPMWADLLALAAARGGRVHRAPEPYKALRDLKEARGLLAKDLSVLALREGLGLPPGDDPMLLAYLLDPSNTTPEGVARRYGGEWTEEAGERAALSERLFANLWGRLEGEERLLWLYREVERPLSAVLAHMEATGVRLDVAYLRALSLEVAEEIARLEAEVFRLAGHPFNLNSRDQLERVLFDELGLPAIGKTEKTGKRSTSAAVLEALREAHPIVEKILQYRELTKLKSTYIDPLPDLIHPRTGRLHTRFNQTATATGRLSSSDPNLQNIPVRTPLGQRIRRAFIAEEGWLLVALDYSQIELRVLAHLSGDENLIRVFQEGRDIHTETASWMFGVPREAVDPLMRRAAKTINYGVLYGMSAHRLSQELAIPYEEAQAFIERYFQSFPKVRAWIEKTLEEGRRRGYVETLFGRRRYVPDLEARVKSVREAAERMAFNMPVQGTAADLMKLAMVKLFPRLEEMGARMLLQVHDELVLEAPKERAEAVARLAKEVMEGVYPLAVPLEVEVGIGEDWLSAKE
T2 sequence (P19821 whole entry): as the sequence (P19821 whole entry G46D/F667Y) above, with D46G, Y667F counted along it

As a reminder, the IC50 is the concentration at which inhibition is half-maximal. Take `O=[N+]([O-])c1ccccc1CNc1ncnc2c1ncn2[C@H]1C[C@H](O)[C@@H](COP(=O)(O)OP(=O)(O)OP(=O)(O)O)O1` [Compound IIIc, N^6-(2-Nitrobenzyl)-2’-deoxyadenosine-5’-triphosphate]: the “Incorporation bias Cpd IIIc/dATP” value in assay [1] (setting [7]) was 170; in assay [3] (Taq, ratio of IC50 values), 380; in assay [4] (setting [8]) it was 1.3. Also, the “Incorporation bias Cpd IIIc/ddATP” value in assay [1] (setting [7]) is reported as 270; in assay [3] (Taq, ratio of IC50 values), 0.17; in assay [4] (setting [8]) it was 0.32. For the same molecule, the “Share of total signal derived from the correct +1 product” value in assay [2] is reported as no less than 80%. In assay [2] (S = (Ceff)^RL, five-base read), the “Estimated signal S” value is 68.4%. In addition, the “Signal for the correct +1 product (T × C)” value in assay [2] (at cycle five) worked out at 40%. Besides, the “Incorporation efficiency (I)” value in assay [2] (first cycle, on a solid support, 250 nM, Bst) came out at 98.6%. Moreover, the “Deprotection efficiency (D)” value in assay [2] (first cycle, on a solid support, 365 nm light) was determined as 94%. Also, the “Cycle efficiency (Ceff)” value in assay [2] (first cycle, product of I and D, on a solid support) is given as 92.7%. In addition, the IC50 in assay [5] stood at 300 nM; in assay [6] it was 2.1 ± 0.2 nM. The “% 1st Base” value in assay [5] (Taq, 25× IC50, oligoTemplate-3) stood at 98.7 ± 0.4%. In addition, the “% 2nd Base” value in assay [5] (Taq, 25× IC50, oligoTemplate-3) was less than 0.1%. Besides, the “% Primer” value in assay [5] (Taq, 25× IC50, oligoTemplate-3) is given as 1.3 ± 0.4%.

For the molecule `Nc1ncnc2c1ncn2[C@H]1CC[C@@H](COP(=O)(O)OP(=O)(O)OP(=O)(O)O)O1` [ddATP, 2′,3′-dideoxyadenosine triphosphate, reference compound], the half-maximal inhibitory concentration (IC50) in assay [1] was determined as 3.3 ± 0.1 nM; in assay [3], 12600 ± 900 nM; in assay [4], 9.7 ± 1.1 nM; in assay [6] it was 550 ± 40 nM. Also, the “Incorporation bias ddATP/dATP” value in assay [1] (setting [7]) worked out at 0.62; in assay [3] (Taq, ratio of IC50 values) it was 2300; in assay [4] (setting [8]), 4.2.
